Measurements: patent US20160264593A1 (priority 2013, published 2016)
“And” between values parts separate entries of the source, which are not always exact repeats. Equal entries are not always repeated. Where two headings read alike, the source gives them in different places.

Legend:
[1] = tested on: PP2A; assay: PP2A immunoprecipitation phosphatase assay on mouse brain lysate, OA added to the reaction (positive control); type: biochemical, Balb/c mice
Procedure: (§1) Coomassie (Bradford) Protein Assay Kit (Pierce); PP2A Immunoprecipitation Phosphatase Assay Kit (Millipore); Lysate preparation for low endogenous phosphate: 20 mM imidazole-HCl, 2 mM EDTA, 2 mM EGTA, 1 mM PMSF, 1 mM benzamidine, 10 ug/ml each of aprotinin, leupeptin, antipain, soybean trypsin inhibitor; Normal Mouse IgG (Millipore); Okadaic acid (OA) (Tocris); DMSO (Sigma).
(§2) 1. Mouse brain or liver was homogenized using lysis buffer (25 g/L), centrifuged at 12000 g for 10 minutes at […], and the supernatants were collected. 2. The protein was quantitated, and 240 μg of mouse brain or liver lysate was taken to assay phosphatase activity. 3. Added 4 μg of Anti-PP2A or 4 μg Normal mouse IgG as an IP control. 4. Added 30 μl Protein A agarose slurry. 5. Brought volume to 500 μl with pNPP Ser/Thr Assay Buffer. 6. Incubated for 2 h at 4° C. with constant rocking. 7. Washed beads 3 times with 700 μl TBS, followed by one wash with 500 μl Ser/Thr Assay Buffer. 8. Added 20 μl of Ser/Thr Assay Buffer. (In order to determine the linear range of PP2A amount for enzymatic reaction, different amounts of precipitated PP2A were used for subsequent phosphatase assay.) 9. Added 60 μl of diluted phosphopeptide (final concentration would be 750 μM) 10. Added OA (5 μM & 5 nM) or DMSO to the reaction system. 11. Incubated for 10 minutes at 30° C. in a shaking incubator. 12. Centrifuged briefly and transferred 25 μl into each well of the microliter plate to be used.
13. Added 100 μl of Malachite Green Phosphate Detection Solution AB.
14. Let color develop for 10-15 minutes at RT. 15. Measured absorbance at a wavelength between […] in a microliter plate reader.

[2] = tested on: PP2A; assay: PP2A immunoprecipitation phosphatase assay on mouse liver lysate, OA added to the reaction (positive control); type: biochemical, Balb/c mice
Procedure: as §1
as §2, with “Incubated for 10 minutes at 30° C. in a shaking incubator. 12. Centrifuged briefly and transferred 25 μl into each well of the microliter plate to be used.” left out
14. […] Measured absorbance at a wavelength between […] in a microliter plate reader.

[3] = Pharmacokinetic study of 153 (and metabolite endothal) in SD rats, iv and po; plasma, liver, brain; type: in vivo
Procedure: The blood, liver and brain tissue samples were collected at predetermined times from rats. […] Compound were diluted shortly before use in 4% sodium bicarbonate for sterile injection (this is the standard pediatric solution of NaHCO3 with a pH of about 8.5).
Compound 153 was freshly prepared by diluting the drugs shortly before use in 4% sodium bicarbonate for sterile injection (this is the standard pediatric solution of NaHCO3 with a pH of about 8.5). The final concentrations of 153 solutions were 0.25 mg/mL. The 153 solutions were administered via iv or po route at dose volume of 5 ml/kg according to the latest body weight. Compound 157 was freshly prepared by diluting the drugs shortly before use in 4% sodium bicarbonate for sterile injection (this is the standard pediatric solution of NaHCO3 with a pH of about 8.5). The final concentrations of […] solutions were 0.3 mg/mL. The 157 solutions were administered via iv or po route at dose volume of 5 ml/kg according to the latest body weight.
Twelve (12) female SD rats per group were dosed by iv with 153 or 157. The rats were fasted overnight prior to dosing, with free access to water. Foods were withheld for 2 hours post-dose. Blood, liver and brain tissue samples in two animals each group were collected at each time point, within 10% of the scheduled time for each time point. Two extra animals were used for analytic method development.
Blood (>0.3 mL) were collected via aorta abdominalis in anaesthetic animals into tubes containing heparin at 15 min, 1, 2, 6, 10 and 24 hours after iv administration. Liver and brain tissues were collected immediately after animal death. The liver and brain tissues were excised and rinsed with cold saline to avoid blood residual. Upon collection, each sample was placed on ice and the blood samples were subsequently centrifuged (4° C., 11000 rpm, 5 min) to separate plasma. The obtained plasma, liver and brain tissue samples were stored at −70° C. until LC-MS/MS analysis.
Two (2) female SD rats per group were dosed by po with 153 or 157. The rats were fasted overnight prior to dosing, with free access to water. Foods were withheld for 2 hours post-dose. Blood samples (>0.3 mL) were collected via aorta abdominalis in anaesthetic animals into tubes containing heparin at 30 min, 1, 2, 6, 10 and 24 hours after po administration.
To each sample, 20 μL IS-D (for blank samples, 20 μL acetonitrile:water (1:1) was added) and 300 μl acetonitrile was added. The sample mixture was vortexed for approximately 3 min. After centrifugation at 10000 rpm for 5 min at 4° C., 100 μL of the upper layer was transferred to a new tube and added 200 μL 0.4% formic acid in water (pH 6.0). The mixture was vortexed for approximately 3 min before injected onto the LC/MS/MS system for analysis.
On the day of the assay, the frozen liver and brain samples were thawed unassisted at room temperature. An about 200 mg weighed sample of each thawed tissue was placed into a plastic tube with water (0.6 mL) to facilitate homogenization. Tissue processing was conducted using a homogenizer for approximately 1 min, 200 μl homogenate was transferred into a fresh Eppendorf tube. To each tube, 50 μL IS-D was added and mixed. Then 600 μl acetonitrile was added and the sample mixture was vortexed for approximately 3 min. After centrifugation at 10000 rpm for 5 min at 4° C., 400 μL of the upper layer was transferred to a new tube and evaporate the supernatant to dryness at 35° C. Reconstitute the residue with 200 μL of 0.4% formic acid in water (pH6.0), and vortex for 3 min, submit for LC-MS/MS analysis.
Frozen unknown plasma samples were completely thawed at room temperature and vortexed thoroughly. With a pipette, 50 μL of plasma was transferred into a 2.0 mL Eppendorf tube. 50 μL of 0.1N HCl and 800 μL ethyl acetate were added into each sample. The sample mixture was vortexed for approximately 3 min.

[4] = tested on: glioblastoma (U-87) cells; assay: WST cell viability assay, U-87 MG; type: cell-based; conditions: for cytotoxicity against glioblastoma cells (statement): WST, U-87; for IC50: read-out: IC50 U-87 MG
[5] = tested on: lung cancer (A549) cells; assay: WST cell viability assay, A549; type: cell-based; conditions: for cytotoxicity against lung cancer cells (statement): WST; for IC50: WST-20131028, read-out: IC50 A549
[6] = tested on: breast cancer (2LMP) cells; assay: WST cell viability assay, 2LMP
Description: (§3) IC50 values were obtained for cytotoxicity against breast cancer (2LMP), glioblastoma (U-87) and lung cancer (A549) cells (See Table 5 and FIGS. 3-5).

[7] = iv daily for 5 days, phase I; cited from earlier work
[8] = tested on: breast cancer (2LMP) cells
Description: as §3

[9] = 5 nM OA in the reaction, brain sample M1-1
[10] = 5 μM OA in the reaction, brain sample M1-1
[11] = End. in plasma after 153 1.25 mg/kg IV, Mean
[12] = End. in plasma after 153 1.25 mg/kg IV, rat 1
[13] = End. in plasma after 153 1.25 mg/kg IV, rat 2
[14] = End. in plasma after 153 1.25 mg/kg PO, Mean
[15] = End. in plasma after 153 1.25 mg/kg PO, rat 1
[16] = End. in plasma after 153 1.25 mg/kg PO, rat 2
[17] = Endothal in liver after single iv 153 1.25 mg/kg, Mean
[18] = Endothal in liver after single iv 153 1.25 mg/kg, rat 1
[19] = Endothal in liver after single iv 153 1.25 mg/kg, rat 2
[20] = read-out: IC50 2LMP, WST-20131015 (first value of the cell)
[21] = read-out: IC50 2LMP, WST-20131025 (second value of the cell)

In the case of `C=C1[C@@H](O)[C@@H]2O[C@]3(CC[C@H](/C=C/[C@@H](C)[C@@H]4CC(C)=C[C@@]5(O[C@H](C[C@@](C)(O)C(=O)O)CC[C@H]5O)O4)O3)CC[C@H]2O[C@@H]1[C@@H](O)C[C@H](C)[C@H]1O[C@@]2(CCCCO2)CC[C@H]1C` [OA, Okadaic acid], the “Average Conc.” value [1, 9] is reported as 270.60, the “Average Relative Activity (vehicle = 100)” value [1, 9] is reported as 12.46 and the “Conc. (phosphate, single reading)” value [1, 9] is reported as 282.72 and 271.21. For the same molecule, the “Mean Conc.” value [1, 9] was 276.96, the “Mean Conc. less IgG blank” value [1, 9] was 270.60 and the “Relative Conc.” value [1, 9] was 0.12. The “Relative PP2A Activity (vehicle = 100)” value [1, 9] was 12.46, the “Average Conc.” value [1, 10] was −5.54 and the “Average Relative Activity (vehicle = 100)” value [1, 10] was −0.38. For the same molecule, the “Mean Conc.” value [1, 10] was 0.82, the “Mean Conc. less IgG blank” value [1, 10] was −5.54 and the “Relative Conc.” value [1, 10] was 0.00. The “Relative PP2A Activity (vehicle = 100)” value [1, 10] was −0.38, the “activity of PP2A in brains, positive control (statement)” value ([1]; OA added to the reaction) was “significantly inhibited” and the “activity of PP2A in livers, positive control (statement)” value [2] was “significantly inhibited”.
For `O=C(O)C1C2CCC(O2)C1C(=O)O` (stereo not shown) [End.], the AUC [3, 11] was 378 ng·h/mL, the “AUC0-∞” value [3, 11] was 600 ng·h/mL and the Cmax [3, 11] was 70.5 ng/mL. The “MRT (0-t)” value [3, 11] was 3.34 h, the T1/2 [3, 11] was 5.2 h and the Tmax [3, 11] was 1.13 h. The AUC [3, 12] was 482 ng·h/mL, the “AUC0-∞” value [3, 12] was 618 ng·h/mL and the Cmax [3, 12] was 77.1 ng/mL. For the same molecule, the “MRT (0-t)” value [3, 12] was 3.93 h, the T1/2 [3, 12] was 4.37 h and the Tmax [3, 12] was 2 h. The AUC [3, 13] was 274 ng·h/mL, the “AUC0-∞” value [3, 13] was 581 ng·h/mL and the Cmax [3, 13] was 63.8 ng/mL. The “MRT (0-t)” value [3, 13] was 2.74 h, the T1/2 [3, 13] was 6.02 h and the Tmax [3, 13] was 0.25 h. The AUC [3, 14] was 179 ng·h/mL, the “AUC0-∞” value [3, 14] was 364 ng·h/mL and the Cmax [3, 14] was 46.9 ng/mL. For the same molecule, the “MRT (0-t)” value [3, 14] was 2.76 h, the T1/2 [3, 14] was 5.49 h and the Tmax [3, 14] was 0.75 h. The AUC [3, 15] was 189 ng·h/mL, the “AUC0-∞” value [3, 15] was 395 ng·h/mL and the Cmax [3, 15] was 53.6 ng/mL. For the same molecule, the “MRT (0-t)” value [3, 15] was 2.8 h, the T1/2 [3, 15] was 5.53 h and the Tmax [3, 15] was 1 h. The AUC [3, 16] was 169 ng·h/mL, the “AUC0-∞” value [3, 16] was 333 ng·h/mL and the Cmax [3, 16] was 40.2 ng/mL. For the same molecule, the “MRT (0-t)” value [3, 16] was 2.72 h, the T1/2 [3, 16] was 5.45 h and the Tmax [3, 16] was 0.5 h. The “MRT (0-t)” value [3, 17] was 3.24 h, the T1/2 [3, 17] was 2.79 h and the Tmax [3, 17] was 2 h. For the same molecule, the T1/2 [3, 18] was 3 h, the Tmax [3, 18] was 2 h and the “MRT (0-t)” value [3, 19] was 3.43 h. For the same molecule, the T1/2 [3, 19] was 2.57 h and the Tmax [3, 19] was 2 h.
With `CCCCCCCCCCCCCCCCCOC(=O)C1C2CCC(O2)C1C(=O)N1CCN(C)CC1` (stereo not shown) [Compound 159] the “cytotoxicity against glioblastoma cells (statement)” value [4] was “cytotoxic”, the IC50 ([4]; WST-20131017 (first value of the cell)) was 5.41 µM and the IC50 ([4]; WST-20131024 (second value of the cell)) was 5.07 µM. The “cytotoxicity against lung cancer cells (statement)” value ([5]; A549) was “cytotoxic”, the IC50 [5] was 4.71 µM and the “cytotoxicity against breast cancer cells (statement)” value ([6]; WST, 2LMP) was “cytotoxic”. For the same molecule, the “cytotoxicity relative to 100 (statement)” value ([6]; cell line not specified (2LMP, U-87, A549 tested)) was “increased cytotoxicity relative to 100”, the IC50 [6, 20] was 4.66 µM and the IC50 [6, 21] was 4.62 µM.
For `C[C@@](O)(/C=C/[C@H]1CC=CC(=O)O1)[C@@H](C[C@@H](O)\C=C/C=C\C=C\CO)OP(=O)(O)O` [fostriecin], the dose limiting toxicity [7] is listed as “not achieved” and the major toxicities [7] is listed as “reversible non-cumulative increases in serum creatinine and hepatic enzymes”.
With `CCCCC/C=C/C/C=C/CCCCCCCCOC(=O)C1C2CCC(O2)C1C(=O)N1CCN(C)CC1` (stereo not shown) [Compound 158, 3-(4-Methylpiperazine-1-carbonyl)-7-oxa-bicyclo [2,2,1] heptane-2-carboxylic acid linoleyl ester] the IC50 ([4]; Homo sapiens, U-87 MG, WST-20131017 (first value of the cell)) was 15.2 µM, the IC50 ([4]; Homo sapiens, U-87 MG, WST-20131024 (second value of the cell)) was 8.28 µM and the “cytotoxicity against glioblastoma cells (statement)” value [4] was “cytotoxic”. For the same molecule, the “cytotoxicity against breast cancer cells (statement)” value [8] was “cytotoxic”, the “cytotoxicity relative to 100 (statement)” value [8] was “increased cytotoxicity relative to 100” and the IC50 ([5]; Homo sapiens, A549) was 8.74 µM. The “cytotoxicity against lung cancer cells (statement)” value ([5]; A549) was “cytotoxic”, the IC50 [6, 20] was 9.19 µM and the IC50 [6, 21] was 12.8 µM.
